Conditions: Liquid; for mass density / viscosity: 298.15 K; for mass density: 101.33 kPa; for vapor or sublimation pressure: Twin ebulliometer

COC(=O)OC [dimethyl carbonate]
Conditions	mass density [kg/m3]	vapor or sublimation pressure [kPa]	viscosity [mPa·s]
–	1063.4	–	0.578
310 K	–	12.17	–
313.86 K	–	14.7	–
317.71 K	–	17.65	–
321.57 K	–	21.05	–
325.43 K	–	24.96	–
329.29 K	–	29.43	–
333.14 K	–	34.51	–
337 K	–	40.26	–
340.86 K	–	46.73	–
344.71 K	–	53.99	–
348.57 K	–	62.11	–
352.43 K	–	71.13	–
356.29 K	–	81.14	–
360.14 K	–	92.2	–
364 K	–	104.4	–

C1C[C@@H]2[C@H]3CC[C@H](C3)[C@@H]2C1 [exo-tetrahydrodicyclopentadiene]
Conditions	mass density [kg/m3]	vapor or sublimation pressure [kPa]	viscosity [mPa·s]
–	931.4	–	2.739
393 K	–	14.8	–
397.64 K	–	17.5	–
402.29 K	–	20.7	–
406.93 K	–	24.2	–
411.57 K	–	28.2	–
416.21 K	–	32.7	–
420.86 K	–	37.8	–
425.5 K	–	43.3	–
430.14 K	–	49.5	–
434.79 K	–	56.3	–
439.43 K	–	63.8	–
444.07 K	–	72	–
448.71 K	–	80.9	–
453.36 K	–	90.6	–
458 K	–	101.1	–

— the NIST ThermoML archive (doi:10.1016/j.fluid.2009.06.002)
